Each cell line was assayed with Cc1ccc(Nc2nccc(N(C)c3ccc4c(C)n(C)nc4c3)n2)cc1S(N)(=O)=O [Pazopanib] + C[C@@H](Oc1cc(-c2cnn(C3CCNCC3)c2)cnc1N)c1c(Cl)ccc(F)c1Cl [Crizotinib] (partner 1 µM) (assay: relative viability (nuclei count vs DMSO), 5 days (fraction); higher = more cells survive). Conditions: first compound 0.01 µM.
How it was run: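 Medians of duplicate plates are given as relative viability. That measure is the nuclei count in treated wells divided by the count in vehicle wells. Counts were taken on 4× images of lung cancer cell lines in 1536-well plates, 5 days after pin-tool dosing the day after seeding with one drug alone or a fixed anchor-drug dose plus five library-drug doses (not always all listed) in √10 steps.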

In order of falling relative viability:
1. ABC-1  1.27
2. NCI-H2170  1.21
3. ChaGo-K-1  1.18
4. NCI-H1944  1.13
5. NCI-H1666  1.09
6. NCI-H647  1
7. NCI-H1299  0.983
8. HOP-62  0.974
9. LCLC-103H  0.968
10. NCI-H1563  0.963
11. NCI-H2085  0.952
12. NCI-H2087  0.952
13. NCI-H2126  0.935
14. IA-LM  0.93
15. SK-MES-1  0.93
16. NCI-H596  0.905
17. Calu-6  0.853
18. HCC-44  0.839
19. H3255  0.828
20. A549  0.813
21. BEN  0.737
22. EMC-BAC-2  0.735
23. LOU-NH91  0.726
24. NCI-H358  0.722
25. COR-L 105  0.712
26. CAL-12T  0.685
27. COR-L23  0.635
28. NCI-H2228  0.51
29. HCC-366  0.508
30. LU99A  0.499
31. NCI-H3122  0.263
32. LK-2  0.224

Same assay, conditions: first compound 0.03162 µM

In order of rising relative viability:
1. EBC-1  0.202
2. LK-2  0.239
3. NCI-H3122  0.247
4. NCI-H2228  0.446
5. HCC-366  0.485
6. LU99A  0.533
7. NCI-H1703  0.628
8. NCI-H2347  0.643
9. COR-L23  0.645
10. CAL-12T  0.676
11. HOP-62  0.68
12. NCI-H358  0.688
13. LOU-NH91  0.731
14. NCI-H2087  0.76
15. HCC-44  0.779
16. EMC-BAC-2  0.786
17. Calu-6  0.821
18. A549  0.855
19. NCI-H1563  0.88
20. H3255  0.882
21. PC-14  0.893
22. NCI-H1993  0.902
23. NCI-H1299  0.913
24. NCI-H838  0.951
25. NCI-H2085  0.968
26. COR-L 105  0.984
27. NCI-H1650  1
28. NCI-H1666  1
29. SK-MES-1  1
30. LCLC-103H  1.03
31. ABC-1  1.04
32. BEN  1.05
33. NCI-H2126  1.09
34. NCI-H1944  1.11
35. NCI-H596  1.15
36. ChaGo-K-1  1.19
37. NCI-H647  1.22
38. NCI-H2170  1.32

Same assay, conditions: first compound 0.1 µM

In order of falling relative viability:
1. NCI-H647  1.26
2. NCI-H2170  1.26
3. LCLC-103H  1.14
4. NCI-H1944  1.05
5. NCI-H2126  1.03
6. NCI-H596  1.01
7. NCI-H2087  1.01
8. SK-MES-1  1.01
9. NCI-H1650  1
10. ChaGo-K-1  0.997
11. NCI-H838  0.982
12. NCI-H1993  0.971
13. PC-14  0.968
14. IA-LM  0.938
15. NCI-H1299  0.921
16. NCI-H2085  0.911
17. NCI-H1563  0.894
18. NCI-H1666  0.875
19. ABC-1  0.873
20. HCC-44  0.86
21. H3255  0.853
22. COR-L 105  0.838
23. BEN  0.814
24. Calu-6  0.81
25. CAL-12T  0.726
26. LOU-NH91  0.711
27. A549  0.709
28. COR-L23  0.663
29. NCI-H2347  0.662
30. EMC-BAC-2  0.649
31. LU99A  0.53
32. NCI-H358  0.518
33. HCC-366  0.478
34. NCI-H2228  0.402
35. NCI-H3122  0.273
36. NCI-H1703  0.261
37. LK-2  0.213
38. EBC-1  0.197

Same assay, conditions: first compound 0.3162 µM

In order of falling relative viability:
1. ChaGo-K-1  1.23
2. NCI-H2170  1.15
3. NCI-H1666  1.09
4. LCLC-103H  1.06
5. NCI-H1944  1.04
6. NCI-H647  1.01
7. SK-MES-1  1.01
8. NCI-H596  0.986
9. ABC-1  0.986
10. NCI-H1299  0.969
11. NCI-H2126  0.96
12. HOP-62  0.946
13. H3255  0.945
14. NCI-H1993  0.926
15. NCI-H2085  0.919
16. NCI-H838  0.912
17. BEN  0.904
18. PC-14  0.891
19. COR-L 105  0.883
20. NCI-H1563  0.878
21. NCI-H1650  0.857
22. IA-LM  0.843
23. NCI-H2087  0.812
24. HCC-44  0.795
25. EMC-BAC-2  0.782
26. Calu-6  0.764
27. LOU-NH91  0.757
28. COR-L23  0.704
29. A549  0.692
30. NCI-H2347  0.691
31. NCI-H358  0.622
32. LU99A  0.606
33. CAL-12T  0.6
34. HCC-366  0.528
35. NCI-H2228  0.496
36. NCI-H3122  0.278
37. NCI-H1703  0.215
38. LK-2  0.21
39. EBC-1  0.184

Same assay, conditions: first compound 1 µM

In order of falling relative viability:
1. LCLC-103H  1.24
2. NCI-H838  1.08
3. NCI-H1650  0.965
4. PC-14  0.935
5. NCI-H1993  0.877
6. NCI-H2347  0.842
7. NCI-H1703  0.221
8. EBC-1  0.187
